Laboratory results as given in PMC5951806, “Rapid labelling and covalent inhibition of intracellular native proteins using ligand-directed N-acyl-N-alkyl sulfonamide” (Nature Communications, 2018).

Columns and labels:
[1] = biological target: T1, Elongation factor 1-alpha 1 (EEF1A1) (Homo sapiens, UniProt P68104); assay: TMT LC-MSMS of 11-labelled proteins; assay type: cell-based
T1 sequence (P68104 1-462): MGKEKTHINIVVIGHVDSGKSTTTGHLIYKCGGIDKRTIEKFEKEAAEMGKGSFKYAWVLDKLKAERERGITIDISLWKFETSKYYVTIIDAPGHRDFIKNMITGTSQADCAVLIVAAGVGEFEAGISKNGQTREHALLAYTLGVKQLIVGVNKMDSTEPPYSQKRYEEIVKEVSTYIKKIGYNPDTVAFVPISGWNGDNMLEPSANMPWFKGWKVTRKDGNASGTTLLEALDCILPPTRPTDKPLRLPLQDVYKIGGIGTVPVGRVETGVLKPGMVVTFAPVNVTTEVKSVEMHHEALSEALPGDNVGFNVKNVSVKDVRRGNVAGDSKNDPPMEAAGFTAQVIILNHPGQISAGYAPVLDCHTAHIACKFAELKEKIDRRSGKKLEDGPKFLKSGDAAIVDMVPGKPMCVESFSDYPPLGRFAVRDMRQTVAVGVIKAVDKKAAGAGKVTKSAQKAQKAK

[2] = biological target: T2, Isoform 2 of Calcium-binding mitochondrial carrier protein Aralar2 (SLC25A13) (Homo sapiens, UniProt Q9UJS0); assay: TMT LC-MSMS of 11-labelled proteins; assay type: cell-based
T2 sequence (Q9UJS0 2-676 isoform Q9UJS0-2): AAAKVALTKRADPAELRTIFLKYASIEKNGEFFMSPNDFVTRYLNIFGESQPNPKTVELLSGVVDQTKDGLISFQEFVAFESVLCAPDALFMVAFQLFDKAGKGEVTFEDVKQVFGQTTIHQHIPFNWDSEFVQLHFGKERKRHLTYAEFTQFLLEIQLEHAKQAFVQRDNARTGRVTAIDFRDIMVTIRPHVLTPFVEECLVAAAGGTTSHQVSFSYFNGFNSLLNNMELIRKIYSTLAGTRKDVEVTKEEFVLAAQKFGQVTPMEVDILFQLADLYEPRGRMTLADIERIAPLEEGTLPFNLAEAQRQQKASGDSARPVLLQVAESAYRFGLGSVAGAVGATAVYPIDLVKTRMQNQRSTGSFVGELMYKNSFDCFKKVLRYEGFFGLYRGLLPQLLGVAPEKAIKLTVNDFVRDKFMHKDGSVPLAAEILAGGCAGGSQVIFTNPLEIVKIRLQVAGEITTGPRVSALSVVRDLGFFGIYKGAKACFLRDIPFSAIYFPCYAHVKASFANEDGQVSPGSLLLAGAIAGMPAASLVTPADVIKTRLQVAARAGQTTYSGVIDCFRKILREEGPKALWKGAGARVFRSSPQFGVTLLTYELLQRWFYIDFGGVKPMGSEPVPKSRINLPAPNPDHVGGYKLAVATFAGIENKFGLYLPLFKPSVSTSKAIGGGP

[3] = sheet Merged, SKBR3 cells, 11 0.5 µM 3 h vs DMSO
[4] = sheet Merged, SKBR3 cells, 11 0.5 µM 3 h vs with PU-H71 10 µM

- Abundance Ratio: (11) / (11 with PU-H71) ([1]; Exp3, EEF1A1): 0.806
- Abundance Ratio: (11) / (DMSO) ([1]; Exp3, EEF1A1): 4.916
- Abundances (Grouped): 11 ([1]; Exp3, EEF1A1): 720.2
- Abundances (Grouped): 11 with PU-H71 ([1]; Exp3, EEF1A1): 894
- Abundance Ratio: (11) / (DMSO) ([1]; sheet Exp1, SKBR3 cells, 11 0.5 µM 3 h vs DMSO): 4.039
- Abundance Ratio: (11) / (11 with PU-H71) ([1]; sheet Exp1, SKBR3 cells, 11 0.5 µM 3 h vs with PU-H71 10 µM): 0.803
- Abundance Ratio: (11) / (11 with PU-H71) ([1]; sheet Exp2, EEF1A1): 0.83
- Abundance Ratio: (11) / (DMSO) ([1]; sheet Exp2, EEF1A1): 3.879
- Abundances (Grouped): 11 ([1]; sheet Exp2, EEF1A1): 725.4
- Abundances (Grouped): 11 with PU-H71 ([1]; sheet Exp2, EEF1A1): 874.4
- Abundance Ratio: (11) / (DMSO) [1, 3]: 3.879
- Abundance Ratio: (11) / (11 with PU-H71) [1, 4]: 0.811
- Abundance Ratio: (11) / (11 with PU-H71) ([2]; sheet Exp2, SLC25A13): 0.894
- Abundance Ratio: (11) / (DMSO) ([2]; sheet Exp2, SLC25A13): 2.324
- Abundances (Grouped): 11 ([2]; sheet Exp2, SLC25A13): 24.4
- Abundances (Grouped): 11 with PU-H71 ([2]; sheet Exp2, SLC25A13, with PU-H71): 27.3
- Abundance Ratio: (11) / (DMSO) [2, 3]: 2.324
- Abundance Ratio: (11) / (11 with PU-H71) [2, 4]: 0.894
Compound: CC(=O)Oc1ccc2c(c1)Oc1cc(OC(C)=O)ccc1C21OC(=O)c2cc(C(=O)NCCOCCOCCNC(=O)CCCC(=O)N(CC#N)S(=O)(=O)c3ccc(C(=O)NCCCn4c(Sc5cc6c(cc5I)OCO6)nc5c(N)ncnc54)cc3)ccc21 [compound 11]
